This is an account of results in ChEMBL document CHEMBL1201862, “PubChem BioAssay data set” (2004).

Common to all, as to experiment: NCI-60 cell line screen, 48 h
In test [1] the test system is MDA-MB-231.
Test [2] deals with SK-MEL-28.
Test [3] relates to OVCAR-5.
In test [4] the test system is NCI-H460.
Test [5] relates to SNB-19.
Test [6] has as its system UO-31.
The subject of test [7] is A549.
Test [8] has as its system TK-10.
Test [9] relates to NCI-H226.
The subject of test [10] is MCF7.
The test system of test [11] is HL-60.
For test [12], the system named is MDA-MB-435.
In test [13] the test system is Malme-3M.
Test [14] relates to NCI/ADR-RES.
Test [15] concerns CCRF-CEM.
Test [16] deals with LOX IMVI.
For test [17], the system named is SK-MEL-5.
Test [18] deals with HT-29.
Test [19] concerns HCC 2998.
Test [20] has as its system MOLT-4.

Molecules are shown by their SMILES.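 Protocol summary: plate cells (96-well), add compound at 5 concentrations, incubate 48 h, interpolate endpoints linearly. The concentration for 50% growth inhibition is given as GI50.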 Activity calls are given as the source filed them. Rule as the data show it: active = GI50 up to about 1.1 µM and inactive = higher.

As to `O=C(O)c1nn(-c2ccccc2)nc1-c1nn(-c2ccccc2)nc1C(=O)O`, the GI50 in [1], in test [2], in test [3], in [4], in test [5] and in test [6] was > 100 µM (inactive) each time. Also, the GI50 in [7], in test [8], in [9], in [10], in test [11] and in [12] was > 100 µM (inactive) each time. Moreover, the GI50 in test [13], in test [14], in test [15], in [16], in test [17] and in [18] was > 100 µM (inactive) in each case. Also, the GI50 in test [19] and in test [20] was > 100 µM (inactive) in each case.
Regarding `COc1ccc(C(c2cc(OC)c(OC)c(OC)c2)N2C(=O)CCC2C(=O)O)cc1` (stereo not given), the GI50 was > 100 µM (inactive) in [1]; 51.1 µM (inactive) in [2]; 61.5 µM (inactive) in test [3]; 38.8 µM (inactive) in [4]; 44.9 µM (inactive) in [5]; 56.4 µM (inactive) in test [6]. Further, the GI50 was 40.2 µM (inactive) in [7]; > 100 µM (inactive) in test [8]; 74.3 µM (inactive) in test [9]; 62.4 µM (inactive) in test [10]; 32 µM (inactive) in [11]; 21.8 µM (inactive) in test [12]. The GI50 is 68.9 µM (inactive) in test [13]; > 100 µM (inactive) in test [14]; 38.8 µM (inactive) in test [15]; 66.8 µM (inactive) in test [16]; 41.9 µM (inactive) in test [17]; 35.6 µM (inactive) in test [18]. The GI50 was 50.2 µM (inactive) in [19] and 72.6 µM (inactive) in [20].
As for `CN(C)CCOc1ccc2[nH]c(C(=O)N3CC(CCl)c4c3cc(N)c3ccccc43)cc2c1` (stereo not given), the GI50 in test [1], in test [2], in [3], in [4], in test [5] and in test [6] was < 0.01 µM (active) each time. In addition, the GI50 in test [7], in test [8], in [9], in test [10], in test [11] and in test [12] was < 0.01 µM (active) in each case. Moreover, the GI50 in test [13], in [14], in test [15], in test [16], in test [17] and in test [18] was < 0.01 µM (active) throughout. The GI50 in test [19] and in test [20] was < 0.01 µM (active) in each case.
Regarding `O=C(Cn1cc(Br)c(=O)[nH]c1=O)c1ccc(-c2ccccc2)cc1`, the GI50 in test [1] is 12.2 µM (inactive); in test [2] it was > 14.3 µM (inactive); in [3] it was > 14.4 µM (inactive); in test [4] it was > 15.9 µM (inactive); in test [5], 2.25 µM (inactive); in test [6], > 100 µM (inactive). For the same compound, the GI50 in [7] was > 17.4 µM (inactive); in [8], > 30.8 µM (inactive); in [9] it was 17 µM (inactive); in test [10], > 17.5 µM (inactive); in [11] it was > 17.4 µM (inactive); in test [12] it was > 16.8 µM (inactive). Also, the GI50 was > 26.5 µM (inactive) in test [13]; 13 µM (inactive) in test [14]; > 12.6 µM (inactive) in test [15]; > 15.4 µM (inactive) in test [16]; > 15.6 µM (inactive) in test [17]; > 17 µM (inactive) in test [18]. The GI50 in [19] is > 15.8 µM (inactive); in test [20] it was > 13 µM (inactive).
In the case of `CN(C)CCCCN1c2ccccc2Sc2ccc(N=[N+]=[N-])cc21`, the GI50 was 7.28 µM (inactive) in test [1]; 1.91 µM (inactive) in [2]; 3.3 µM (inactive) in test [3]; 4.09 µM (inactive) in test [4]; 8.85 µM (inactive) in test [5]; 6.34 µM (inactive) in [6]. Further, the GI50 in test [7] was 9.93 µM (inactive); in test [8], 12.1 µM (inactive); in [9], 6.11 µM (inactive); in test [10], 2.45 µM (inactive); in [11], 2.06 µM (inactive); in test [12], 2.06 µM (inactive). The GI50 in test [13] is 1.76 µM (inactive); in test [14] it was 9.98 µM (inactive); in [15], 2.69 µM (inactive); in test [16] it was 2.26 µM (inactive); in test [17], 1.67 µM (inactive); in [18] it was 2.22 µM (inactive). Also, the GI50 in [19] was 1.66 µM (inactive); in test [20], 1.39 µM (inactive).
Regarding `O=C(NCCNCCCNC(=O)c1cc(-c2ccccc2)nc2ccccc12)c1cccc(OCc2ccccc2)c1OCc1ccccc1`, the GI50 in test [1] was 1.71 µM (inactive); in [2], 1.81 µM (inactive); in [3], 1.91 µM (inactive); in test [4], 2.13 µM (inactive); in [5], 1.78 µM (inactive); in [6] it was 1.66 µM (inactive). The GI50 in test [7] is 1.74 µM (inactive); in test [8], 1.77 µM (inactive); in test [9], 1.69 µM (inactive); in test [10] it was 1.66 µM (inactive); in test [11] it was 1.6 µM (inactive); in [12] it was 1.68 µM (inactive). In addition, the GI50 in [13] is 2.07 µM (inactive); in test [14], 1.87 µM (inactive); in test [15] it was 1.79 µM (inactive); in test [16], 1.57 µM (inactive); in [17], 1.71 µM (inactive); in [18] it was 1.63 µM (inactive). Moreover, the values for the GI50 in [19] and in [20] were 1.26 µM (inactive) and 1.85 µM (inactive), respectively.
Consider `Nc1c2ccccc2nc2ccc(C(=O)Nc3ccc(S(N)(=O)=O)cc3)cc12`, for which the GI50 in [1], in [2], in [3], in test [4], in test [5] and in test [6] was > 100 µM (inactive) each time. The GI50 in test [7], in [8], in [9], in test [10], in [11] and in test [12] was > 100 µM (inactive) in each case. In addition, the GI50 in test [13], in [14], in [15], in test [16], in test [17] and in test [18] was > 100 µM (inactive) in each case. The GI50 in [19] and in test [20] was > 100 µM (inactive) each time.
Regarding `CC(=O)NC(C)(C)C1CC=C(C)CC1` (stereo not given), the GI50 in test [1], in [2], in test [3], in test [4], in test [5] and in test [6] was > 100 µM (inactive) throughout. In addition, the GI50 in [7], in test [8], in [9], in [10], in test [11] and in test [12] was > 100 µM (inactive) in each case. For the same compound, the GI50 in test [13], in test [14], in [15], in test [16], in [17] and in test [18] was > 100 µM (inactive) throughout. Also, the GI50 in test [19] and in test [20] was > 100 µM (inactive) each time.
For the compound `CC(=O)O[C@H]1[C@H](OC(=O)CC(C)(O)CC(=O)O)C[C@]2(C)C3=C(CCC2C1(C)C)[C@]1(C)CC[C@H]([C@H]2CC[C@H](C(C)(C)O)OC2O)[C@@]1(C)[C@@H](O)C3` (stereo not given in full), the GI50 in test [1] is 14.9 µM (inactive); in test [2] it was 16.9 µM (inactive); in [3] it was 17.3 µM (inactive); in test [4], 15.3 µM (inactive); in test [5], 18.8 µM (inactive); in [6], 13.1 µM (inactive). Besides, the GI50 in test [7] was 32.4 µM (inactive); in test [8], 30.9 µM (inactive); in test [9], 23.8 µM (inactive); in test [10], 24 µM (inactive); in [11] it was 17.7 µM (inactive); in test [12] it was 19.1 µM (inactive). In addition, the GI50 was 23.7 µM (inactive) in test [13]; > 100 µM (inactive) in [14]; 22 µM (inactive) in [15]; 18.5 µM (inactive) in test [16]; 17.2 µM (inactive) in [17]; 16.3 µM (inactive) in [18]. Further, the figures for the GI50 in test [19] and in test [20] were 15.8 µM (inactive) and 19 µM (inactive), respectively.
For `CN(C)c1nc2sc3c(c2c(=O)o1)CCCC3`, the GI50 is 41.5 µM (inactive) in [1]; 71.3 µM (inactive) in test [2]; 60.1 µM (inactive) in [3]; 44.5 µM (inactive) in test [4]; 25.6 µM (inactive) in test [5]; 7.46 µM (inactive) in test [6]. In addition, the GI50 in [7] is 29.2 µM (inactive); in test [8], > 100 µM (inactive); in [9], 15.3 µM (inactive); in [10] it was 48.3 µM (inactive); in [11], 27 µM (inactive); in [12], 31.5 µM (inactive). The GI50 in test [13] is 25.9 µM (inactive); in test [14] it was 43 µM (inactive); in test [15] it was 39.4 µM (inactive); in test [16], 52 µM (inactive); in test [17] it was 23.8 µM (inactive); in test [18], 21 µM (inactive). Further, the GI50 was > 100 µM (inactive) in [19] and 52.2 µM (inactive) in test [20].
